Consider eleven molecules from PubChem BioAssay (NCI).

Where “and” joins values, the source holds several entries; their conditions need not be identical. Equal values may be shown once.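 Tested at 5 concentrations; 48 h exposure; 96-well plates; endpoints linearly interpolated, else capped at highest concentration. The concentration for 50% growth inhibition is given as GI50. Definition used: TGI = concentration required for complete inhibition of growth.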 A value given as a limit tells only on which side of the number the result lay.

What all share (assay): NCI-60 cell line screen, 48 h
Test [1] has as its system SF-295 CNS.
Test [2] concerns LOX IMVI melanoma.
The subject of test [3] is K-562 leukemia.
Test [4] has as its system CCRF-CEM leukemia.
Test [5] has as its system UACC-62 melanoma.
Test [6] concerns T-47D breast.
The test system of test [7] is SF-539 CNS.
Test [8] relates to M19-MEL melanoma.
In test [9] the test system is SNB-78 CNS.
Test [10] concerns DLD-1 colon.
In test [11] the test system is DMS 273 small cell lung.
Test [12] has as its system XF 498 CNS.
The subject of test [13] is MDA-N.

Take `CCOC(=O)c1c(Cl)c2c(n1Cc1ccccc1)-c1oncc1CCC2`: the GI50 in test [1] was > 100000 nM; in test [2], 5260 nM; in test [3], 3680 nM; in [4] it was 2210 nM; in test [5] it was 4010 nM; in test [6] it was 2690 nM. Besides, the TGI in test [1], in test [2], in test [3], in test [4], in test [5] and in [6] was > 100 µM each time.
As for `CC(C)(C)OC(=O)CC(NC(=O)OCc1ccccc1)NC(=O)OC(C)(C)C` (stereo unspecified), the GI50 in test [1] is 46.2 µg/mL; in test [2], 71.2 µg/mL; in [3], 38.2 µg/mL; in [4], 35.4 µg/mL; in test [5], 57.2 µg/mL; in test [6], 26 µg/mL.
Regarding `O=c1c(-c2ccccc2)c(SCCCN2CCCCC2)n(-c2ccccc2)c(=S)n1-c1ccccc1`, the TGI in test [1] came to 32.1 µM; in test [2], 32.4 µM; in [3], 34.1 µM; in test [4], 50.9 µM; in [5] it was 30.1 µM; in [7], 30.4 µM.
In the case of `C=CCN1C(=O)NC(=O)/C(=C/c2c3ccccc3cc3ccccc23)C1=O`, the TGI in test [1] was 38.3 µM; in [8], > 100 µM; in test [2], 75.4 µM; in test [9], > 100 µM; in test [3] it was 66.5 µM; in test [4], > 100 µM. The TGI in [10] came out at 44.7 µM; in test [5], 50.4 µM; in test [7], 38.1 µM; in test [11], 43.4 µM; in test [12] it was 40.7 µM.
`O=c1c2ccccc2nc2n1CCc1c-2[nH]c2ccccc12`: the TGI in [1] was 27 µM; in test [13] it was 28.5 µM; in test [3], > 100 µM; in test [4], > 100 µM; in [6] it was 55.5 µM. Also, the GI50 in [4] is 18900 nM.
Regarding `C/C=C(/CCC1NCCc2c1[nH]c1ccccc21)[Si](C)(C)C` (stereo unspecified), the TGI in test [1] is > 100 µM and 19.2 µM; in [8], > 100 µM and 10.1 µM; in test [2], 15.2 µM; in test [9] it was > 100 µM and 27 µM; in test [3] it was > 100 µM; in [4], > 100 µM and 11.5 µM. The TGI in [10] is > 100 µM and 21.6 µM; in [5], > 100 µM and 26.5 µM; in test [7], > 100 µM and 13.1 µM; in test [11], > 100 µM and 13.5 µM.
On to `NCCCCNOCCCN`, for which the TGI in test [1], in test [2], in [13], in test [3], in [4] and in test [5] was > 100 µM each time. Further, the TGI in test [7] and in [6] was > 100 µM throughout.
`O=c1[nH]c2ccccc2c2oc3ccccc3c12`: the TGI in test [1], in test [13], in test [3], in test [4], in test [5] and in test [7] was > 100 µM throughout. Also, the TGI in test [6] was > 100 µM.
As for `O=[N+]([O-])c1ccc(N/N=C\c2cc(Br)ccc2O)nc1`, the GI50 was 1050 nM in test [1]; 472 nM in test [2]; 612 nM in [3]; 314 nM in test [4]; 1860 nM in test [5]; 918 nM in test [7]. For the same molecule, the GI50 in test [6] is 2070 nM. The TGI in test [1] is 3.11 µM; in test [2], 2.37 µM; in test [3], > 100 µM; in [4], > 100 µM; in test [5] it was 6.15 µM; in test [7] it was 4.16 µM. Besides, the TGI in test [6] was > 100 µM.
`NC(Cc1cc(I)c(Oc2ccc(O)c(I)c2)c(I)c1)C(=O)O` (stereo unspecified): the TGI in test [1], in test [2], in test [13], in test [5] and in test [6] was > 100 µM in each case.
Regarding `O=S1(=O)C(=C(c2ccccc2)c2ccccc2)S(=O)(=O)c2ccccc21`, the TGI in test [1] is > 66.4 µM; in test [8] it was > 100 µM; in test [2], > 100 µM; in [9], 99.7 µM; in [3] it was > 100 µM; in [4], > 100 µM. Besides, the TGI in test [10] was > 100 µM; in [5], > 100 µM; in [7], 73.3 µM; in [11] it was > 100 µM; in test [12] it was 62.4 µM.
